Paper doi:10.1101/2023.11.24.568596v1 (biorxiv, 2023)

What was measured:
Conditions in all cases: binder
Wnk1 = Wnk1 (Homo sapiens, UniProt Q9H4A3)
TTK = biological target: T1, TTK (Homo sapiens, UniProt P33981)
T1 sequence (P33981 1-857): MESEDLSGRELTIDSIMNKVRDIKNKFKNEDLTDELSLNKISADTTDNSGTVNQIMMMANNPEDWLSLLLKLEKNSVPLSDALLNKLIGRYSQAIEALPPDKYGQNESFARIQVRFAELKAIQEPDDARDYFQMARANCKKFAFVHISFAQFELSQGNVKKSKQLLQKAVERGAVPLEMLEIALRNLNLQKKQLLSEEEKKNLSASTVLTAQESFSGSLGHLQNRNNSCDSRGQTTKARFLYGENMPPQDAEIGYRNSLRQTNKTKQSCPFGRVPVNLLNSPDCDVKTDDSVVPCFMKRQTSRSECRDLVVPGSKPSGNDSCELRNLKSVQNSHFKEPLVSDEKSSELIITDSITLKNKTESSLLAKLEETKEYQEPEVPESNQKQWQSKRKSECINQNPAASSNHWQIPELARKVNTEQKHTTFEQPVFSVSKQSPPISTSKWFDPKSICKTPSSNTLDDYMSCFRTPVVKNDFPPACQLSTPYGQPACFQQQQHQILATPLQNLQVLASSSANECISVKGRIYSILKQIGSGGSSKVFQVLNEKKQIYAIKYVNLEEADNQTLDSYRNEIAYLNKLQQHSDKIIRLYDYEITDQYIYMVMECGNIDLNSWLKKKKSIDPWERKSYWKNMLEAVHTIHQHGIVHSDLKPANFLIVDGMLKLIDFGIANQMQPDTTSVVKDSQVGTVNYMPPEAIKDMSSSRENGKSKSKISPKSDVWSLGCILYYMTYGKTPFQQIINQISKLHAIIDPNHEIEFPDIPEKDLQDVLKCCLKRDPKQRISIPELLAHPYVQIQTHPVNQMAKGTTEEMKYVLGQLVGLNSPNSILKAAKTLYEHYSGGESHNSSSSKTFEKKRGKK

TLK1 = biological target: T2, TLK1 (Homo sapiens, UniProt Q9UKI8)
T2 sequence (Q9UKI8 1-766): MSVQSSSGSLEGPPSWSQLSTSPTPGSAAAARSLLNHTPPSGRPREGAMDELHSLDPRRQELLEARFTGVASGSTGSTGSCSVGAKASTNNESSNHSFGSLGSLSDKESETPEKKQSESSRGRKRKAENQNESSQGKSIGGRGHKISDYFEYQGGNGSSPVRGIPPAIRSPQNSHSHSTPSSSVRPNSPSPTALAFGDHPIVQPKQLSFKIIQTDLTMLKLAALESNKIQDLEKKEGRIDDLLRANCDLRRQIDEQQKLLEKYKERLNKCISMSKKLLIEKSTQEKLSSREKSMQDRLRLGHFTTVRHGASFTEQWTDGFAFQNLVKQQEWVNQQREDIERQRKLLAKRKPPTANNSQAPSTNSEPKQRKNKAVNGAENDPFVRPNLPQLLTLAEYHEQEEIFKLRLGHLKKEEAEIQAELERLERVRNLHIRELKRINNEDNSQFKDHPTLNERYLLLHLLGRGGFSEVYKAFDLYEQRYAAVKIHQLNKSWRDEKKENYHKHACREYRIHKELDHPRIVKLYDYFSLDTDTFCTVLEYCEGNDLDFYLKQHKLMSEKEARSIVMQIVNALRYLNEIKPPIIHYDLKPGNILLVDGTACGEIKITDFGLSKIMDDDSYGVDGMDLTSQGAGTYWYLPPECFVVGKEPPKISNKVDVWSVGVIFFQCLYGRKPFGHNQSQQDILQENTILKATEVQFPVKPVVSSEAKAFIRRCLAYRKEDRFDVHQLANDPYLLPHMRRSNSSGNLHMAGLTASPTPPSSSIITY

TAF1 = TAF1 (Homo sapiens, UniProt P21675)
SRPK1 = SRPK1 (Homo sapiens, UniProt Q96SB4)
STLK3 = STLK3 (Homo sapiens, UniProt Q9UEW8)
SLK = SLK (Homo sapiens, UniProt Q9H2G2)
VRK1 = biological target: T3, VRK1 (Homo sapiens, UniProt Q99986)
T3 sequence (Q99986 1-396): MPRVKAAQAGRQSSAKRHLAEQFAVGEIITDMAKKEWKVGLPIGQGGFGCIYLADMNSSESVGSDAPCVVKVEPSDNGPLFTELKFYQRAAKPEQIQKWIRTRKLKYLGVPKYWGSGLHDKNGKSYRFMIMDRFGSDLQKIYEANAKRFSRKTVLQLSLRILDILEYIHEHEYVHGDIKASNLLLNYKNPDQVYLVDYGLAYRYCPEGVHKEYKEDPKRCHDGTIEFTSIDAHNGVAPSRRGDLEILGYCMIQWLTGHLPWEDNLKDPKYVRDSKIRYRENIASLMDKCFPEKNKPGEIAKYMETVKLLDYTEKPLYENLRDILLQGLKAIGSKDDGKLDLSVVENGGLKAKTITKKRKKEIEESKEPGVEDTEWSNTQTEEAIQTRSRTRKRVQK

Sequence of Wnk1 (Q9H4A3 whole entry): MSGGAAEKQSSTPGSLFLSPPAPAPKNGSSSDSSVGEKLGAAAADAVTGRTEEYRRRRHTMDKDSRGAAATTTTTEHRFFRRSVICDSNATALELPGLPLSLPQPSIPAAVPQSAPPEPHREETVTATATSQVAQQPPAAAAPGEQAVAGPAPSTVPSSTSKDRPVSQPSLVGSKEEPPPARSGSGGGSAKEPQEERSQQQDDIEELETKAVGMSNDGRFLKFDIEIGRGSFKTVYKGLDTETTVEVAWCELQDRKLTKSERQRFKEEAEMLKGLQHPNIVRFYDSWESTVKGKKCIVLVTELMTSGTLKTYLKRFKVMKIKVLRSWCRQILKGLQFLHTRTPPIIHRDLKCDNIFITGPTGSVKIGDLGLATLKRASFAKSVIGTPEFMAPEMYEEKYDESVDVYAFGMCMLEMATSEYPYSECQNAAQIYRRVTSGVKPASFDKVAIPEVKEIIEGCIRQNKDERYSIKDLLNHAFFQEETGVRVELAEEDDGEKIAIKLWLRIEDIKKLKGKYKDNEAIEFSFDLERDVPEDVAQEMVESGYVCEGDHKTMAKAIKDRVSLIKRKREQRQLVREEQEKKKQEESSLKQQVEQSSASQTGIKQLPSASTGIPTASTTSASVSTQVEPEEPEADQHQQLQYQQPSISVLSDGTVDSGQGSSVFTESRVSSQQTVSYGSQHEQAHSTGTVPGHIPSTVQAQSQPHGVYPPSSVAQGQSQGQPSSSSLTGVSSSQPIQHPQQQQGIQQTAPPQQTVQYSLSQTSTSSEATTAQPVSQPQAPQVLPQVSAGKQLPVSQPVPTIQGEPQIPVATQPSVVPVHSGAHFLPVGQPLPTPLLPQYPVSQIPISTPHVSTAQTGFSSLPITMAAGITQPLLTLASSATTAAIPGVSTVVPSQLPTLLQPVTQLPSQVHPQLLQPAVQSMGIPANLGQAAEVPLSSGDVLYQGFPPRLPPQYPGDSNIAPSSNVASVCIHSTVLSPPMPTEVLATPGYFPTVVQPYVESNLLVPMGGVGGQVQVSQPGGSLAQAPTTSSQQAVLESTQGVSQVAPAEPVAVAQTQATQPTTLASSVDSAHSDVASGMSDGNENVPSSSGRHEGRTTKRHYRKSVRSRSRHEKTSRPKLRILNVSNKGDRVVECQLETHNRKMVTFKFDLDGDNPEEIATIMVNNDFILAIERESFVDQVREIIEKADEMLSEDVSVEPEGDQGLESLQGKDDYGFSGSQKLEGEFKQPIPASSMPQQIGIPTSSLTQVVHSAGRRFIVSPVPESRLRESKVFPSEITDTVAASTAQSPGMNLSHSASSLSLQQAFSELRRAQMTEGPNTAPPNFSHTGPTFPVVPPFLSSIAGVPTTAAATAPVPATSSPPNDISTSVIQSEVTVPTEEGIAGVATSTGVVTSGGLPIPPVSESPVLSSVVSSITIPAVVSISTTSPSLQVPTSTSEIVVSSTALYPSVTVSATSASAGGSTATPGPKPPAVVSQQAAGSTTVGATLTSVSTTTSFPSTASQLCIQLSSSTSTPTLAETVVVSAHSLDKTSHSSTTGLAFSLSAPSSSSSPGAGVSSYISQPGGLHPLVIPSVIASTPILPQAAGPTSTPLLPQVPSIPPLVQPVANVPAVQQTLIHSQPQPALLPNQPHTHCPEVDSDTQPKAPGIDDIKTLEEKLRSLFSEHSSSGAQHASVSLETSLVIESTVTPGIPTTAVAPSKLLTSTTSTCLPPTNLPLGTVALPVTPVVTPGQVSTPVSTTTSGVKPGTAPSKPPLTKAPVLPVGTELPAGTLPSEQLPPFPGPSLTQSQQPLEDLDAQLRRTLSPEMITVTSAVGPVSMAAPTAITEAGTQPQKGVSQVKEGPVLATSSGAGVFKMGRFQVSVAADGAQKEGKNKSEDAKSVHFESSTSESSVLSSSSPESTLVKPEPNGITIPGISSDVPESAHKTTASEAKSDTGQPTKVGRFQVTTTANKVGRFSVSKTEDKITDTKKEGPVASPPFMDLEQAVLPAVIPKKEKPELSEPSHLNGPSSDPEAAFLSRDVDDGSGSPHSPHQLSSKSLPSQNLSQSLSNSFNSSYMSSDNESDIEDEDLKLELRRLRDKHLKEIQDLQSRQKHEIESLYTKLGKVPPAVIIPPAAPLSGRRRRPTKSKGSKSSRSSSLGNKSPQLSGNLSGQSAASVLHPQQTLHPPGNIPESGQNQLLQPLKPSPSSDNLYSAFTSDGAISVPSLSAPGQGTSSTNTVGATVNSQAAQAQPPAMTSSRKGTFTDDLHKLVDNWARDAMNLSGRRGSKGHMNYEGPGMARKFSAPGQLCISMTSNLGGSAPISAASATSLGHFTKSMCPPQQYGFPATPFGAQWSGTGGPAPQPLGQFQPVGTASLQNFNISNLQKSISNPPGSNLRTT
Sequence of TAF1 (P21675 whole entry): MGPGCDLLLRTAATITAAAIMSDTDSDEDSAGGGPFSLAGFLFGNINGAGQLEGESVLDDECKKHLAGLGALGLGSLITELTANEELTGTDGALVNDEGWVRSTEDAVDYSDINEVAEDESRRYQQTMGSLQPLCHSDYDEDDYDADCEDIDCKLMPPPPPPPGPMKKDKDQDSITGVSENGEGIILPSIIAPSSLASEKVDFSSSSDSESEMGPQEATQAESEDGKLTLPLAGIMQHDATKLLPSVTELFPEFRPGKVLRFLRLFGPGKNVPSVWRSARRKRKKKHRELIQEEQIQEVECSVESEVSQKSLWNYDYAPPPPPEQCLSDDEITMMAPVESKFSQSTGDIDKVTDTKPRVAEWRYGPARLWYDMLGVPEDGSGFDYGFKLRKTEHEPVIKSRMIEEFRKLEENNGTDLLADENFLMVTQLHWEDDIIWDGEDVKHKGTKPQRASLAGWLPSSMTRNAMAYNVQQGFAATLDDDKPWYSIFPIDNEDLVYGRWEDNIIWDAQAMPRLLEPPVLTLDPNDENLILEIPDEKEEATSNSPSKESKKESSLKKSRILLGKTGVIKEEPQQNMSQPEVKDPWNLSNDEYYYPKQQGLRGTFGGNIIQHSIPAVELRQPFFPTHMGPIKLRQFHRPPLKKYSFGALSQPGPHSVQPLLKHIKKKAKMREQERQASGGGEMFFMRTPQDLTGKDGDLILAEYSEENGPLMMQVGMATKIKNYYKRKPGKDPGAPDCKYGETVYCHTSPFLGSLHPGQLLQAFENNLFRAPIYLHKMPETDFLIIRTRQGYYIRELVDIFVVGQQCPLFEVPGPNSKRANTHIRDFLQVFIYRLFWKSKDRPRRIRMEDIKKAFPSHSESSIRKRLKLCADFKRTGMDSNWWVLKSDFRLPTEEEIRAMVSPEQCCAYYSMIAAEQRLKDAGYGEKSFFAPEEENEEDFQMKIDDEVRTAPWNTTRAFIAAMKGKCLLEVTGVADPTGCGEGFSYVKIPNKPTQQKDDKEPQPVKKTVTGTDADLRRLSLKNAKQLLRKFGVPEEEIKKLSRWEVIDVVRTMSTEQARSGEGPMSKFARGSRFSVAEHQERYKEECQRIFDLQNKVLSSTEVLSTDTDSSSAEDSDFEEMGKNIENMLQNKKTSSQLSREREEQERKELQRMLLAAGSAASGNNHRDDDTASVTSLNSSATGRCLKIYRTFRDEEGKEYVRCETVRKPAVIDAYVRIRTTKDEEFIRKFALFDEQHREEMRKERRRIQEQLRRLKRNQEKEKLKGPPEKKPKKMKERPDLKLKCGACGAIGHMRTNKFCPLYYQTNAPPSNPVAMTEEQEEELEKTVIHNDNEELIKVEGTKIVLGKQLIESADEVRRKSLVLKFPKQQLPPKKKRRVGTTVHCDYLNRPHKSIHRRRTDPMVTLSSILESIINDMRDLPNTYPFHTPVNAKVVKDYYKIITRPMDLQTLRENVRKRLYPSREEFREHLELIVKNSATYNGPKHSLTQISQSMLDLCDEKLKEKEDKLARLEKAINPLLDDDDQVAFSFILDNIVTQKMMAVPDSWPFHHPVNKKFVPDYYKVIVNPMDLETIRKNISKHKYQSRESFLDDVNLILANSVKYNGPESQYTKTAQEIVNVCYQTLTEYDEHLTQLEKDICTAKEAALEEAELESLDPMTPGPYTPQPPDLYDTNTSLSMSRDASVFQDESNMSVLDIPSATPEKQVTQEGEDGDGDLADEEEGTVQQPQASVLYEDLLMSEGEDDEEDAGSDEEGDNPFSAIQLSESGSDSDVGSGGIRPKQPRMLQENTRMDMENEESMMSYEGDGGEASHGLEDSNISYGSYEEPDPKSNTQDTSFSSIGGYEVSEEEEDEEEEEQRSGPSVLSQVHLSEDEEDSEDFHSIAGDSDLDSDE
Sequence of SRPK1 (Q96SB4 whole entry): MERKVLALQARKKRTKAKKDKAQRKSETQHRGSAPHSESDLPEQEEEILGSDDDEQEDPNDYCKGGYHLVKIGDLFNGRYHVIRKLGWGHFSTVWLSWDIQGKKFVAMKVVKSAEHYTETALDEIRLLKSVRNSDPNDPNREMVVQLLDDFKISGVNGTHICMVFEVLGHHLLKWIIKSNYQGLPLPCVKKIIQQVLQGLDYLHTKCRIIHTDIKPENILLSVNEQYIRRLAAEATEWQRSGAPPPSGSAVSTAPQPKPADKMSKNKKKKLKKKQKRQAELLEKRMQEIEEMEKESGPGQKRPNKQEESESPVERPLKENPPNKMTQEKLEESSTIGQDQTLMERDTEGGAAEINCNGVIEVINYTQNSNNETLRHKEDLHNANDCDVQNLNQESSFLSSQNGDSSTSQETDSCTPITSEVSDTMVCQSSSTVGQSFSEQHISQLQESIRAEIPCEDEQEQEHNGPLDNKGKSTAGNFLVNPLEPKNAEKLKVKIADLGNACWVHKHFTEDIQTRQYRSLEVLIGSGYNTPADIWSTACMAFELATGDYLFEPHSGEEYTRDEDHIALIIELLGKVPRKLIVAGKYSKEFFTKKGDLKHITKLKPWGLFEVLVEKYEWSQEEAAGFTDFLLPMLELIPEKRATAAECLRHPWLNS

## Cc1cccc(-c2ccc(-c3cc4cnc(NCCCN5CCCC5=O)nc4n(CCCCN)c3=O)c(Cl)c2)n1 [compound 27, MR30]
Wnk1
  ΔTm MR30 (27): 0.8 °C
TTK
  ΔTm MR30 (27): -0.3 °C
TLK1
  ΔTm MR30 (27): -2.0 °C
TAF1
  ΔTm MR30 (27): 0.0 °C
SRPK1
  ΔTm MR30 (27): -0.2 °C
STLK3
  ΔTm MR30 (27): 10.0 °C
SLK
  ΔTm MR30 (27): 2.6 °C
VRK1
  ΔTm MR30 (27): -0.1 °C

## Cc1cccc(-c2ccc(-c3cc4cnc(Nc5cc(C(F)(F)F)ccc5C)nc4n(CCCCN)c3=O)c(Cl)c2)n1 [compound 28, 8-(4-Aminobutyl)-6-(2-chloro-4-(6-methylpyridin-2-yl)phenyl)-2-((2-methyl-5-(trifluoromethyl)phenyl)amino)pyrido[2,3-d]pyrimidin-7(8H)-one]
Wnk1
  ΔTm 28: 2.8 °C
TTK
  ΔTm 28: -11.0 °C
TLK1
  ΔTm 28: -1.8 °C
TAF1
  ΔTm 28: 0.4 °C
SRPK1
  ΔTm 28: 0.1 °C
STLK3
  ΔTm 28: 10.4 °C
SLK
  ΔTm 28: 4.5 °C
VRK1
  ΔTm 28: 0.8 °C

## Cc1cccc(-c2ccc(-c3cc4cnc(NCCCN5CCNCC5)nc4n(CCCCN)c3=O)c(Cl)c2)n1 [compound 29, 8-(4-Aminobutyl)-6-(2-chloro-4-(6-methylpyridin-2-yl)phenyl)-2-((3-(piperazin-1-yl)propyl)amino)pyrido[2,3-d]pyrimidin-7(8H)-one]
Wnk1
  ΔTm 29: 0.6 °C
TTK
  ΔTm 29: -0.4 °C
TLK1
  ΔTm 29: -1.5 °C
TAF1
  ΔTm 29: 0.2 °C
SRPK1
  ΔTm 29: 0.1 °C
STLK3
  ΔTm 29: 8.8 °C
SLK
  ΔTm 29: 3.5 °C
VRK1
  ΔTm 29: 0.4 °C

## Cc1cccc(-c2ccc(-c3cc4cnc(Nc5ccc(CCCO)cc5)nc4n(CCCCN)c3=O)c(Cl)c2)n1 [compound 30, 8-(4-Aminobutyl)-6-(2-chloro-4-(6-methylpyridin-2-yl)phenyl)-2-((4-(3-hydroxypropyl)phenyl)amino)pyrido[2,3-d]pyrimidin-7(8H)-one]
Wnk1
  ΔTm 30: 4.8 °C
TTK
  ΔTm 30: 5.6 °C
TLK1
  ΔTm 30: -0.9 °C
TAF1
  ΔTm 30: -0.5 °C
SRPK1
  ΔTm 30: 0.0 °C
STLK3
  ΔTm 30: 16.6 °C
SLK
  ΔTm 30: 8.6 °C
VRK1
  ΔTm 30: 0.3 °C

## Cc1cccc(-c2ccc(-c3cc4cnc(Nc5ccc(O)cc5)nc4n(CCCCN)c3=O)c(Cl)c2)n1 [compound 31, 8-(4-Aminobutyl)-6-(2-chloro-4-(6-methylpyridin-2-yl)phenyl)-2-((4-hydroxyphenyl)amino) pyrido[2,3-d]pyrimidin-7(8H)-one]
Wnk1
  ΔTm 31: 3.1 °C
TTK
  ΔTm 31: 5.1 °C
TLK1
  ΔTm 31: -1.6 °C
TAF1
  ΔTm 31: -1.0 °C
SRPK1
  ΔTm 31: 0.3 °C
STLK3
  ΔTm 31: 16.6 °C
SLK
  ΔTm 31: 7.7 °C
VRK1
  ΔTm 31: 0.9 °C

## Cc1cccc(-c2ccc(-c3cc4cnc(Nc5ccc(C)c(O)c5)nc4n(CCCCN)c3=O)c(Cl)c2)n1 [compound 32, 8-(4-Aminobutyl)-6-(2-chloro-4-(6-methylpyridin-2-yl)phenyl)-2-((3-hydroxy-4-methylphenyl)amino)pyrido[2,3-d]pyrimidin-7(8H)-one]
Wnk1
  ΔTm 32: 3.5 °C
TTK
  ΔTm 32: 2.2 °C
TLK1
  ΔTm 32: -0.8 °C
TAF1
  ΔTm 32: 0.5 °C
SRPK1
  ΔTm 32: 0.4 °C
STLK3
  ΔTm 32: 16.6 °C
SLK
  ΔTm 32: 7.8 °C
VRK1
  ΔTm 32: 0.8 °C
